{"source": "patent US6187906A", "about": "“Methods to improve neural outcome” (Aukland Uniservices Limited, priority 1998, dated 2001)", "test_system": "TH positive neurons of the SNc", "assay": "6-OHDA lesion of medial forebrain bundle, TH neuron number and staining density in SNc (Experiment 6)", "type": "in vivo", "procedure": "A paired experimental design was used and the experimenter was blinded to the treatment groups. Eighteen male Wistar rats (50-60 days old, 280-310 g) were used for this study. 6-hydroxy dopamine (6-OHDA) was prepared as 8 μg in a base of 2 μl 0.9% saline containing 1% ascorbic acid. It was administered into the right medial forebrain bundle (MFB) using coordinates of AP +4.7 mm, R 1.6 mm, V -8 mm under anaesthesia of 3% halothane, 6-OHDA was injected into the right MFB using a Hamilton syringe (100 μl with a 30G needle) controlled by a microdialysis infusion pump at an infusion rate of 0.2 μl/minute. The infusion needle was then slowly withdrawn 5 minutes after infusion. The surgery procedures for the intracerebroventricular administration have been described by Guan et al (1993), Journal of Cerebral Blood Flow and Metab, 13, 609-616. Briefly, a guide cannula (21G, 6 mm) was fixed on the top of the dura with coordinates of AP +7.5 mm, R 1.5 mm immediately after the injection of 6-OHDA. Either GPE (3 μg/15 μl) or its vehicle were infused into the right lateral ventricle 2 hours later at an infusion rate of 2 μl/minute (Guan et al (1993)). Rats were then housed in a holding room with food and water ad libitum for the next 2 weeks.\nThe rats were then deeply anaesthetized with an overdose of pentobarbital and transcardially perfused with normal saline followed by 10% buffered formalin. The brains were removed from the skull and kept in the same fixative for the next 48 hours. A standard paraffin tissue preparation was used to process the tissue so that it could be used for immunohistochemistry. […]\nThe number of TH positive neurons on both sides of the SNc were counted using light microscopic examination (20×magnification) at three representative levels (AP +4.2, +3.8 mm and […]) (Paxinos, et al (1982) New York: Academic Press).\nThe average density from the background was also measured. […] The difference in average density between the background and TH immunostaining was calculated and used for data analysis. […]", "data": [{"smiles": "NCC(=O)N1CCC[C@H]1C(=O)N[C@@H](CCC(=O)O)C(=O)O", "note": "[GPE, gly-pro-glu]", "values": [{"measurement": "TH immunoreactivity (density of TH immunostaining, R/L)", "setting": "caudal levels, 3 μg GPE, vehicle 16±11.2, mean ±SEM", "value": "99.6±27", "unit": "%"}, {"measurement": "neurons remaining in the ipsilateral SNc", "setting": "caudal levels, GPE 3 μg, vehicle 16.3±11.5", "value": "over 60.9±13.0%"}, {"measurement": "TH immunoreactivity (density of TH immunostaining)", "setting": "lesioned (right) side, 3 μg GPE icv 2 hours after 6-OHDA, 2 weeks", "value": "restored"}]}]}
